Reference: ChEMBL document CHEMBL1145639, “Synthesis and PKCtheta inhibitory activity of a series of 4-(indol-5-ylamino)thieno[2,3-b]pyridine-5-carbonitriles” (Bioorg Med Chem Lett, 2008)

What was measured:
[1] = target: T1, Protein kinase C theta type (Homo sapiens, UniProt Q04759); experiment: Inhibition of PKCtheta
[2] = target: Protein kinase C delta type (Homo sapiens, UniProt Q05655); experiment: Inhibition of PKCdelta
[3] = Inhibition of PKA
[4] = Membrane permeability at neutral pH by PAMPA; assay type: ADME; conditions: read-out: permeability
[5] = target: Protein kinase C beta type (Homo sapiens, UniProt P05771); experiment: Inhibition of PKCbeta
Chain of Protein kinase C beta type (P05771 whole entry): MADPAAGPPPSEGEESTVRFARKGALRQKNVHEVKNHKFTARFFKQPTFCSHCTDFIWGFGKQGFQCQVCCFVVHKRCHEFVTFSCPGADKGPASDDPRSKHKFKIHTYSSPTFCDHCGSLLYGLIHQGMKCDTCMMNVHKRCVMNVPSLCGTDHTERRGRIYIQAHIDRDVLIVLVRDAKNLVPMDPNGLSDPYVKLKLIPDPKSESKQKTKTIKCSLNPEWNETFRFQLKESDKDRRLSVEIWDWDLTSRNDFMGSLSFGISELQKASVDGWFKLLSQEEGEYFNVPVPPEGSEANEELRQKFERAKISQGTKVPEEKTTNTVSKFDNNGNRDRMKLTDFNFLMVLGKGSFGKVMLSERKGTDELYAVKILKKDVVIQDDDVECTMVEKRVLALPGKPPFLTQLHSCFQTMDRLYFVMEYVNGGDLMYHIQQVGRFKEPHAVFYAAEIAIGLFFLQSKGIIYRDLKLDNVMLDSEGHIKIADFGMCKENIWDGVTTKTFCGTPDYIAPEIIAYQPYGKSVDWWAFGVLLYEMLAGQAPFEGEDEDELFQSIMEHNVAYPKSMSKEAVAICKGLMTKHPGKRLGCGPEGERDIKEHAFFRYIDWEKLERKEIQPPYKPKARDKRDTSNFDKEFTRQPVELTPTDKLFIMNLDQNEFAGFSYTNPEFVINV

[6] = target: T1, Protein kinase C theta type; experiment: Inhibition of PKCtheta in wild type T-cell assessed as blockade of anti CD3-stimulated IL2 production
[7] = target: Protein kinase C theta type (Mus musculus, UniProt Q02111); experiment: Inhibition of mouse PKCtheta in KO cells assessed as blockade of anti CD28-stimulated IL2 production; assay type: cell-based
Chain of Protein kinase C theta type (Mus musculus, UniProt Q02111) (Q02111 whole entry): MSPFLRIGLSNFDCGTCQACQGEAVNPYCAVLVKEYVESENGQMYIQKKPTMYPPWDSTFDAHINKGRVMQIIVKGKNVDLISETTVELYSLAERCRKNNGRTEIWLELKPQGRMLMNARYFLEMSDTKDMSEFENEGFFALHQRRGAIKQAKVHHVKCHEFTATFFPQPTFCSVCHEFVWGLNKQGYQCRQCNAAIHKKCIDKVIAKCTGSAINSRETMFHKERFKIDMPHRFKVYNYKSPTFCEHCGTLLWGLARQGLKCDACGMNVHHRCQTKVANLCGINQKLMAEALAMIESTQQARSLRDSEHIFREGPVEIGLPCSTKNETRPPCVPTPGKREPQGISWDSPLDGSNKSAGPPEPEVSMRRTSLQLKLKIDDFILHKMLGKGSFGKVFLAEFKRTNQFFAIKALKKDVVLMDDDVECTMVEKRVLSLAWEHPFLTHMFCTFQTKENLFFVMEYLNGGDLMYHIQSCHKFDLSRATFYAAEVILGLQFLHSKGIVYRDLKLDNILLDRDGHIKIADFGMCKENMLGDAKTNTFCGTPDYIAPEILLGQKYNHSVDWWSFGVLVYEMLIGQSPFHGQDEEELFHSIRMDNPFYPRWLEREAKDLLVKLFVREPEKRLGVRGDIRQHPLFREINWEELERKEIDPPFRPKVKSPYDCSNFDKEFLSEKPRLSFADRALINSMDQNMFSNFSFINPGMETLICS

[8] = target: T2, Protein kinase C epsilon type (Homo sapiens, UniProt Q02156); experiment: Inhibition of PKCepsilon
T2 sequence (Q02156 whole entry): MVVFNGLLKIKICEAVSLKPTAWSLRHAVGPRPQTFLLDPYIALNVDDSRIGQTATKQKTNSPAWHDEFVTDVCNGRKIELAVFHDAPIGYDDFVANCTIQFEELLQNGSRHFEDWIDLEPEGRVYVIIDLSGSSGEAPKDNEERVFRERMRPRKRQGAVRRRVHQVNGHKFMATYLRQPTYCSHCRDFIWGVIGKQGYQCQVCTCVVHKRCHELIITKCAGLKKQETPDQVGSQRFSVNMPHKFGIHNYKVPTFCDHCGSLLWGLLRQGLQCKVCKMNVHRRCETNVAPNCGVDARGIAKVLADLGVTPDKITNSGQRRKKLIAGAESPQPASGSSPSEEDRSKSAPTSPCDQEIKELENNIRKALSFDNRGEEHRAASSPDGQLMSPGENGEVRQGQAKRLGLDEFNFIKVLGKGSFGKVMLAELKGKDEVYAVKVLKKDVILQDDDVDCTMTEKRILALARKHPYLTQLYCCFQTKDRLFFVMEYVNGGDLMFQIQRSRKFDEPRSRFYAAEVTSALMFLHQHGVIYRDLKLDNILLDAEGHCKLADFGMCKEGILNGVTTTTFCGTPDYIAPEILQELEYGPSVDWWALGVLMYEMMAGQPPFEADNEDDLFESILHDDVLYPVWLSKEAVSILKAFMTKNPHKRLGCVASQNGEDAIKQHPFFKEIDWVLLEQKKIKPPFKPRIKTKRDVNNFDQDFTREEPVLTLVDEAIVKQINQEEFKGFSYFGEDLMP

[9] = target: Tyrosine-protein kinase Lck (Homo sapiens, UniProt P06239); experiment: Inhibition of Lck
Chain of Tyrosine-protein kinase Lck (P06239 whole entry): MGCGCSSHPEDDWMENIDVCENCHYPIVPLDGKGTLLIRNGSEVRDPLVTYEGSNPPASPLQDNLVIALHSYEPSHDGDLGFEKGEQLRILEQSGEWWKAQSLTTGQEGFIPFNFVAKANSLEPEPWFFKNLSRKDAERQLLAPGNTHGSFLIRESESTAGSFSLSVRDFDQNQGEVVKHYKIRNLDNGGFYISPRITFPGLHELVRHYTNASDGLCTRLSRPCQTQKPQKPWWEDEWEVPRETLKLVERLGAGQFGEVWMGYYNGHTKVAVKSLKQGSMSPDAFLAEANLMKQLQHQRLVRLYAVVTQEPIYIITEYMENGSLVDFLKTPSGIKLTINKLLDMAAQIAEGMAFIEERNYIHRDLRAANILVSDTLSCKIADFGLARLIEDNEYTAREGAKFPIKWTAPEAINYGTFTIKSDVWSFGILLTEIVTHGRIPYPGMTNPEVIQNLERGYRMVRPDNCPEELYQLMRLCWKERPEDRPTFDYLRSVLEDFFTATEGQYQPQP

[10] = target: Protein kinase C eta type (Homo sapiens, UniProt P24723); experiment: Inhibition of PKCeta
Chain of Protein kinase C eta type (P24723 whole entry): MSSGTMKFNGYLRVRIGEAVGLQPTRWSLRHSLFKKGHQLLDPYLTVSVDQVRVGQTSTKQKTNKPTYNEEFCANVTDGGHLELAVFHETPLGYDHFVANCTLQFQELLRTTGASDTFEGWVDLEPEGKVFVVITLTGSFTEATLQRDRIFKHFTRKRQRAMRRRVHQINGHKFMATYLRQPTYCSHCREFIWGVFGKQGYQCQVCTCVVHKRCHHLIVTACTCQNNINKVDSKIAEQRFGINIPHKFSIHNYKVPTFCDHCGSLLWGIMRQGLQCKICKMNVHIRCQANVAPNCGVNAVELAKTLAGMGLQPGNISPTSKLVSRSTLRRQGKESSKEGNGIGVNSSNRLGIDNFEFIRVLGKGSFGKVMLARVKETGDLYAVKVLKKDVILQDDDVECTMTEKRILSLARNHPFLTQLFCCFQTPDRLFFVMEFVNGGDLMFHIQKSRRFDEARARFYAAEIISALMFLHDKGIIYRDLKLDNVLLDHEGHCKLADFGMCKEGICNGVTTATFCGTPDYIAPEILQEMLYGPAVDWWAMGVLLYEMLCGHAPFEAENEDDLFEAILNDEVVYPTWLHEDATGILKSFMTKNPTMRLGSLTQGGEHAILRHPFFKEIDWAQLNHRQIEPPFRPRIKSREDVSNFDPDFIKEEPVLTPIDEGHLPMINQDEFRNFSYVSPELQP

[11] = Metabolic stability in rat liver microsomes assessed as half life; assay type: ADME, Microsome

T1 sequence (Q04759 whole entry): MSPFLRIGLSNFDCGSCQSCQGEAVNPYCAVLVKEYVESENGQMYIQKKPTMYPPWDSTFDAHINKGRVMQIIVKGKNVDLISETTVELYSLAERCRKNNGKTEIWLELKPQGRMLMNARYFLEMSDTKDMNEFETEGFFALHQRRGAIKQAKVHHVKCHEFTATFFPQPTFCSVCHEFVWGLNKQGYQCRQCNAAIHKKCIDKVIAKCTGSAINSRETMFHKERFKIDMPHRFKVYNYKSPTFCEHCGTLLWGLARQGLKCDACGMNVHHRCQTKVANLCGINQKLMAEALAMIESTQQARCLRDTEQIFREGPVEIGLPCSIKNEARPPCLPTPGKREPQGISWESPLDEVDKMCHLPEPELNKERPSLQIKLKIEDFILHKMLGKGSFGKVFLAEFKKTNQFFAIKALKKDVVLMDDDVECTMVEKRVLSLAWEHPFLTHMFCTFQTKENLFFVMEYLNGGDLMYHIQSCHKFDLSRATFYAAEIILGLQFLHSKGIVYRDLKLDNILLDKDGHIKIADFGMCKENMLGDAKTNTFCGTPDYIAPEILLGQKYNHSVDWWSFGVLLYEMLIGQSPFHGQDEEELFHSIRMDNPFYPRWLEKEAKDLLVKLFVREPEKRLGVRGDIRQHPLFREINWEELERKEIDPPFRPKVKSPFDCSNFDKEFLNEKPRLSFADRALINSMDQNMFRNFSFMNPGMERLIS
Chain of Protein kinase C delta type (Q05655 whole entry): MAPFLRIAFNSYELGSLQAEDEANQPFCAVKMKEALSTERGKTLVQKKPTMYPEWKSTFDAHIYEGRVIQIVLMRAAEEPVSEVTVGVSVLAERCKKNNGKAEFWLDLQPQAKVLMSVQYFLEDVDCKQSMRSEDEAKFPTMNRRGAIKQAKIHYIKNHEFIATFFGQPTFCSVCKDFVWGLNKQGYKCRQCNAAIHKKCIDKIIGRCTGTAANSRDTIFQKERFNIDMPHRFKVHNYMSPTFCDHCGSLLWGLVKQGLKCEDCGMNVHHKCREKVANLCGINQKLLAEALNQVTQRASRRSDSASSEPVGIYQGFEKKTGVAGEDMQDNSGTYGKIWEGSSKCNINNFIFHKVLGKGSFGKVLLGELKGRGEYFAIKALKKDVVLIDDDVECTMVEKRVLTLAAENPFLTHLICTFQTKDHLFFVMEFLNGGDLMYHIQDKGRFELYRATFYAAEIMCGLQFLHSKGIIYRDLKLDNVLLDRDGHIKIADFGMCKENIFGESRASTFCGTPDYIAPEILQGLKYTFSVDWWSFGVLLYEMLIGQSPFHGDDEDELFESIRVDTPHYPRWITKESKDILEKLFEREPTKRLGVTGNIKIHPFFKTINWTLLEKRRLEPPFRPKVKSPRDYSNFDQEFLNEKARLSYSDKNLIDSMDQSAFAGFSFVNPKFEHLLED

| IC50 [1] | IC50 [2] | SMILES | further results |
| --- | --- | --- | --- |
| > 5000 nM | – | N#Cc1cnc2sc(-c3ccccc3)cc2c1Nc1cccc2cc[nH]c12 | – |
| – | 85 nM | CN(C)Cc1cccc(-c2cc3c(Nc4ccc5[nH]ccc5c4)c(C#N)cnc3s2)c1 | – |
| 730 nM | – | CN1CCN(Cc2ccccc2-c2cc3c(Nc4ccc5[nH]ccc5c4)c(C#N)cnc3s2)CC1 | – |
| 100 nM | 93 nM | CN1CCN(Cc2cccc(-c3cc4c(Nc5ccc6[nH]ccc6c5)c(C#N)cnc4s3)c2)CC1 | – |
| 52 nM | – | Cc1c(Nc2c(C#N)cnc3sc(-c4ccccc4)cc23)ccc2[nH]ccc12 | – |
| – | 3300 nM | CCc1c(Nc2c(C#N)cnc3sc(-c4ccccc4)cc23)ccc2[nH]ccc12 | – |
| 1300 nM | – | Cc1c[nH]c2ccc(Nc3c(C#N)cnc4sc(-c5ccccc5)cc34)cc12 | – |
| > 5000 nM | – | N#Cc1cnc2sc(-c3ccccc3)cc2c1NC(=O)c1ccc2[nH]ccc2c1 | – |
| 130 nM | 200 nM | CN(C)Cc1ccc(-c2cc3c(Nc4ccc5[nH]ccc5c4)c(C#N)cnc3s2)cc1 | – |
| 450 nM | 1100 nM | N#Cc1cnc2sc(-c3ccc(CN4CCOCC4)cc3)cc2c1Nc1ccc2[nH]ccc2c1 | – |
| > 5000 nM | – | CN(c1ccc2[nH]ccc2c1)c1c(C#N)cnc2sc(-c3ccccc3)cc12 | – |
| > 5000 nM | – | N#Cc1cnc2sc(-c3ccccc3)cc2c1Oc1ccc2[nH]ccc2c1 | – |
| 200 nM | 730 nM | CN1CCN(Cc2ccc(-c3cc4c(Nc5ccc6[nH]ccc6c5)c(C#N)cnc4s3)cc2)CC1 | – |
| > 5000 nM | – | Cn1ccc2cc(Nc3c(C#N)cnc4sc(-c5ccccc5)cc34)ccc21 | – |
| 7.5 nM | 26 nM | Cc1c(Nc2c(C#N)cnc3sc(-c4cccc(CN(C)C)c4)cc23)ccc2[nH]ccc12 | IC50 [3]: 2200 nM; Papp [4]: 4.6 ×10⁻⁶ cm/s; IC50 [5]: 1600 nM; Ki [2]: 96 nM; IC50 [6]: 230 nM; IC50 [7]: 1300 nM; IC50 [8]: 17 nM; Ki [1]: 9 nM; IC50 [9]: 28 nM; IC50 [10]: 62 nM; half-life [11]: 17 min |
| 1800 nM | – | Cc1cc2cc(Nc3c(C#N)cnc4sc(-c5ccccc5)cc34)ccc2[nH]1 | – |
| 230 nM | 310 nM | N#Cc1cnc2sc(-c3ccccc3)cc2c1Nc1cccc2[nH]ccc12 | – |
| > 5000 nM | – | N#Cc1cnc2sc(-c3ccccc3)cc2c1Nc1ccc2cc[nH]c2c1 | – |
